# Data taken from ChEMBL document CHEMBL1137118, “Definition of the heterocyclic pharmacophore of bacterial methionyl tRNA synthetase inhibitors: potent antibacterially active non-quinolone analogues” (Bioorg Med Chem Lett, 2004).
# Assays:
# [1] = biological target: Methionine--tRNA ligase (Staphylococcus aureus subsp. aureus MW2, UniProt Q8NY00); assay: Inhibitory concentration against Staphylococcus aureus methionyl tRNA synthetase
# [2] = test system: Staphylococcus aureus; assay: Antibacterial activity against Staphylococcus aureus Oxford; type: functional
# [3] = test system: Enterococcus faecalis; assay: Antibacterial activity against Enterococcus faecalis 1; type: functional
# [4] = test system: Staphylococcus epidermidis; assay: Concentration required to inhibit 90% population of Staphylococcus epidermidis; type: functional
# [5] = test system: Enterococcus faecalis; assay: Concentration required to inhibit 90% population of Enterococcus faecalis; type: functional
# [6] = test system: Enterococcus faecium; assay: Concentration required to inhibit 90% population of Enterococcus faecium; type: functional
# [7] = test system: Staphylococcus aureus; assay: Concentration required to inhibit 90% population of Staphylococcus aureus; type: functional
IC50 [1] [µM],MIC [2] [µg/mL],MIC [3] [µg/mL],MIC90 [4] [µg/mL],MIC90 [5] [µg/mL],MIC90 [6] [µg/mL],MIC90 [7] [µg/mL],Structure (SMILES)
< 0.003,,,,,,,Oc1cc(NCCCNCc2cc(Cl)cc(Cl)c2Cl)nc2ccccc12
< 0.003,0.25,≤ 0.06,,,,,Oc1cc(NCCCNCc2cc(Br)cc(Br)c2)nc2ccccc12
< 0.003,≤ 0.06,≤ 0.06,,,,,Oc1nc(NCCCNC2CCNc3c(Cl)cc(Br)cc32)nc2ccsc12 (centres undefined)
0.017,1,0.25,,,,,CCOc1c(Br)cc(Br)cc1CNCCCNc1nc2ccccc2[nH]1
< 0.003,0.25,0.13,,,,,CCOc1c(Cl)cc(Cl)cc1CNCCCNc1nc(O)c2sccc2n1
< 0.003,0.13,0.13,,,,,CCOc1c(Br)cc(Cl)cc1CNCCCNc1nc(O)c2sccc2n1
0.1,,,,,,,Clc1cc(Cl)c(Cl)c(CNCCCNc2ccc3ccccc3n2)c1
< 0.003,≤ 0.06,0.5,,,,,CCc1cc(I)c2c(c1)C(NCCCNc1nc(O)c3sccc3n1)CCN2 (centres undefined)
0.011,≤ 0.06,≤ 0.06,0.5,0.06,0.03,1,Brc1cc(Br)c2c(c1)C(NCCCNc1nc3ncccc3[nH]1)CCN2 (centres undefined)
0.029,1,0.13,,,,,Brc1cc(Br)cc(CNCCCNc2nc3ccccc3[nH]2)c1
1.8,,,,,,,Oc1cc(NCCCNCc2cc(Cl)cc(Cl)c2Cl)cc2ccccc12
0.0097,0.13,≤ 0.06,,,,,CCOc1c(Br)cc(Br)cc1CNCCCNc1nc2ccccc2c(=O)[nH]1
0.58,> 64,> 64,,,,,Oc1nc(NCCCNCc2cc(Br)cc(Br)c2)nc2c1CCC2
0.33,> 64,8,,,,,O=C(NCCCNCc1cc(Br)cc(Br)c1)Nc1ccccc1
0.0049,0.13,≤ 0.06,,,,,CCOc1c(Br)cc(Br)cc1CNCCCNc1nc(O)c2sccc2n1
0.018,0.25,1,,,,,CCc1cc(I)c2c(c1)C(NCCCNc1nc3ccc[nH]c-3n1)CCN2 (centres undefined)
0.005,0.5,0.25,,,,,Brc1cc(Br)cc(CNCCCNc2nc3ccc[nH]c-3n2)c1
< 0.003,0.13,≤ 0.06,,,,,CCOc1c(Cl)cc(Cl)cc1CNCCCNc1nc(O)c2ccccc2n1
0.016,0.5,1,,,,,CCc1cc(I)c2c(c1)C(NCCCNc1nc3ccccc3[nH]1)CCN2 (centres undefined)
0.017,1,0.13,,,,,CCOc1c(Br)cc(OC)cc1CNCCCNc1nc2ccccc2[nH]1

IC50 [1] [µM],MIC [2] [µg/mL],MIC [3] [µg/mL],MIC90 [4] [µg/mL],MIC90 [5] [µg/mL],MIC90 [6] [µg/mL],MIC90 [7] [µg/mL],Structure (SMILES)
0.054,0.5,0.25,,,,,N#Cc1c(NCCCNCc2cc(Br)cc(Br)c2)[nH]c2ccccc12
0.0063,≤ 0.06,≤ 0.06,,,,,Brc1cc(Br)c2c(c1)[C@H](NCCCNc1nc3ncccc3[nH]1)CCN2
1,,,,,,,O=c1cc(NCCCNCc2cc(Cl)cc(Cl)c2Cl)oc2ccccc12
0.0039,0.5,≤ 0.06,,,,,O=c1nc(NCCCNCc2cc(Br)cc(Br)c2)[nH]c2ccsc12
< 0.003,0.13,≤ 0.06,,,,,CCOc1c(Br)cc(Cl)cc1CNCCCNc1nc(O)c2ccccc2n1
0.68,> 64,,,,,,Oc1cc(SCCCNCc2ccc(Cl)c(Cl)c2)nc2ccccc12
0.013,0.25,≤ 0.06,,,,,Brc1cc(Br)c2c(c1)C(NCCCNc1nc3ccccc3[nH]1)CCN2 (centres undefined)
0.15,> 64,32,,,,,Oc1nc(NCCCNCc2cc(Br)cc(Br)c2)nc2sccc12
> 1,> 64,> 64,,,,,Oc1cc(-c2ccccc2)nc(NCCCNCc2cc(Br)cc(Br)c2)n1
0.013,≤ 0.06,≤ 0.06,,,,,Oc1nc(NCCCNC2CCNc3c(Br)cc(Br)cc32)nc2ccsc12 (centres undefined)
0.0033,0.25,≤ 0.06,,,,,CCOc1c(Br)cc(OC)cc1CNCCCNc1nc(O)c2sccc2n1
0.007,0.13,≤ 0.06,,,,,CCOc1c(Br)cc(OC)cc1CNCCCNc1nc(O)c2ccccc2n1
0.038,32,,,,,,Oc1cc(OCCCNCc2ccc(Cl)c(Cl)c2)nc2ccccc12
0.0062,0.25,≤ 0.06,,,,,Oc1cc(NCCCNCc2cc(Br)cc(Br)c2)nc2sccc12
< 0.003,2,0.5,,,,,CCOc1c(Cl)cc(Cl)cc1CNCCCNc1nc2ccccc2[nH]1
0.004,0.13,≤ 0.06,,,,,Oc1cc(NCCCNCc2cc(Br)cc(Br)c2)nc2ccsc12
0.0038,1,0.5,,,,,CCOc1c(Br)cc(Cl)cc1CNCCCNc1nc2ccccc2[nH]1
0.0081,0.25,≤ 0.06,,,,,Oc1nc(NCCCNCc2cc(Br)cc(Br)c2)nc2ccccc12
0.017,≤ 0.06,0.25,,,,,CCc1cc(I)c2c(c1)C(NCCCNc1nc(O)c3ccccc3n1)CCN2 (centres undefined)
0.0082,≤ 0.06,≤ 0.06,,,,,Oc1nc(NCCCNC2CCNc3c(Cl)cc(Br)cc32)nc2ccccc12 (centres undefined)
